Laboratory results taken from article PMC6863955, “Quantitation of a Novel Engineered Anti-infective Host Defense Peptide, ARV-1502: Pharmacokinetic Study of Different Doses in Rats and Dogs” (Frontiers in Chemistry, 2019).
Read-outs that look alike come from different tables or passages of the source. Non-standard residues stand in square brackets, D forms with d. Residues, ends and D or L forms follow the SMILES beside them. Ac6c = NC1(C(=O)O)CCCCC1

Assays:
[1] = in vivo; details: Sprague-Dawley, rat; for level at 0.5 h: plasma concentration after 30 min
Experimental: (§1) A series of eight blood samples (~0.5 mL each) was collected in rats on Day 1. Following IM administration, the blood was collected at 5, 15, 30, and 45 min and at 1, 1.5, 2, and 3-h post-dose. After IV administration, blood was collected at 2, 5, 15, 30, and 45 min and at 1, 1.5, and 2-h post-dose. Animals were euthanized after the last blood collection by carbon dioxide asphyxiation followed by cervical dislocation and discarded without further examination. Safety parameters monitored on the study were mortality and clinical signs. Body weights (BW) were recorded to calculate the dose only. Blood sampling was performed for pharmacokinetic evaluation.
(§2) Aliquots of rat or Beagle plasma (20 μL) were spiked with standard peptide Onc72 (0.35 μg/mL plasma, 1.2 μL). Samples were diluted with aqueous TFA in two steps (0.2% v/v, 20 μL and 0.1% v/v, 260 μL) and loaded on an Oasis HLB 96-well-SPE-plate (5 mg sorbent per well, Waters). The samples were washed twice with aqueous TFA (0.1% v/v, 1 mL) and eluted in two steps with aqueous acetonitrile (30% v/v, 150 μL) containing formic acid (0.1% v/v). The fractions were dried in a vacuum centrifuge (SpeedVac, 60°C), reconstituted with aqueous methanol (75% v/v, 20 μL) containing formic acid (0.1% v/v), and diluted with aqueous acetonitrile (3% v/v, 100 μL) containing formic acid (0.1%).
(§3) A quadrupole-Orbitrap mass spectrometer (Q Exactive plus™, Thermo Scientific) was coupled online to an uHPLC (Vanquish™, Thermo Scientific). Separation was achieved on a Jupiter C18 column (inner diameter: 1 mm, length: 150 mm, particle size: 5 μm, pore size: 130 Å, Phenomenex Ltd.) at 55°C using a flow rate of 200 μL/min and a linear gradient of 3 to 23% (v/v) aqueous acetonitrile containing formic acid (0.1%) within 5 min.
(§4) Pharmacokinetic datasets were evaluated with a PKSolver add-in for Microsoft Excel using a non-compartmental analysis (Zhang et al., [2010]).

[2] = dog, in vivo
Experimental: (§5) The objective of the study conducted at ITR Laboratories Canada Inc (Baie d'Urfe, Quebec, Canada) was to determine the pharmacokinetic profile of ARV-1502 following single intravenous or intramuscular injection administration to Sprague-Dawley rats and Beagle dogs.
(§6) For the dog study, ARV-1502 was administered once IM (divided equally over 2 sites) and once IV (1 week apart) as detailed in Table 2. Following dosing, blood was collected at the same time points noted above for the rat study.
as §2, §3
(§7) ARV-1502 was quantitated by the peak area of an extracted ion chromatogram (XIC) obtained from the MS/MS using Xcalibur 4.0.27.21 software. The peak area of ARV-1502 corrected by using the peak area of Onc72.

[3] = in vivo; details: Beagle, dog
Experimental: as §5, §6, §2, §3, §7

[4] = rat, in vivo
Experimental: as §1, §2, §3, §4

CC(C)C[C@H](NC(=O)[C@H](Cc1ccc(O)cc1)NC(=O)[C@@H]1CCCN1C(=O)[C@H](CCCNC(=N)N)NC(=O)[C@@H]1CCCN1C(=O)[C@H](CCCCN)NC(=O)[C@H](CC(=O)O)NC(=O)[C@@H]1CCCN1C(=O)[C@H](CCCNC(=N)N)NC(=O)C1(N)CCCCC1)C(=O)N1CCC[C@H]1C(=O)N[C@@H](CCCNC(=N)N)C(=O)N1CCC[C@H]1C(=O)N[C@@H](CCCNC(=N)N)C(=O)N1CCC[C@H]1C(=O)N1CCC[C@H]1C(=O)N[C@@H](CCCNC(=N)N)C(=O)N1CCC[C@H]1C(=O)N[C@H](C(=O)N[C@@H](CCCNC(=N)N)C(N)=O)C(C)C [ARV-1502, Chex1-Arg20 amide] (H-[Ac6c]RPDKPRPYLPRPRPPRPVR-NH2) showed a half-life ([1]; im) of 24.2 min, an MRT ([1]; iv, 0.25 mg/kg) of 6.22 min and a half-life ([1]; iv, 0.25 mg/kg) of 15.4 min. It also gave a Cmax ([1]; both, im, 2.5 mg/kg) of 12000 ng/mL, a Tmax ([1]; both, im, 2.5 mg/kg) of 15 min and a level at 5 min ([1]; both, im, 2.5 mg/kg, plasma concentration after 5 min) of 11000 ± 3300 ng/mL. It also gave a level at 0.5 h ([1]; both, im, 2.5 mg/kg) of roughly 900 ng/mL, a level at 3 h ([1]; both, im, 2.5 mg/kg, plasma concentration within 3 h) of 16 ng/mL and an AUC(0-inf) ([1]; both, iv, 0.25 mg/kg) of 521 ng·h/mL. It also gave a Cmax ([1]; both, iv, 0.25 mg/kg) of 3410 ng/mL, a Tmax ([1]; both, iv, 0.25 mg/kg) of 2 min and a level at 0.5 h ([1]; both, iv, 0.25 mg/kg) of 64.2 ± 7.3 ng/mL. The level at 2 h ([1]; both, iv, 0.25 mg/kg, plasma concentration after 2 h) was 2 to 4 ng/mL, the level at 5 min ([1]; female, im, 2.5 mg/kg, plasma concentration after 5 min (initial peptide level)) was 13800 ± 1900 ng/mL and the level at 0.25 h ([1]; female, im, 2.5 mg/kg, plasma concentration at 15 min) was 19000 ± 4900 ng/mL. The level at 5 min ([1]; male, im, 2.5 mg/kg, plasma concentration after 5 min (initial peptide level)) was 8200 ± 1400 ng/mL, the level at 0.5 h ([1]; male, im, 2.5 mg/kg) was 1000 ng/mL and the “clearance rate in dogs relative to the rate in rats” value [2] was “around half”. The “volume of distribution after IM, fold larger than the BV” value [2] was “more than 9 fold”, the “AUMC0→∞” value ([2]; iv, 0.075 mg/kg) was 820.3 μg·min^2/mL and the k ([2]; iv, 0.075 mg/kg) was 0.09 min⁻¹. For the same molecule, the “volume of distribution as share of circulating blood volume (BV)” value ([2]; iv, 0.075 mg/kg) was ~ 84%, the “plasma concentration 2 min after administration” value ([2]; male, Beagle, iv, 75 ug/kg, 2 min) was 0.69 ± 0.15 µg/mL and the half-life ([3]; im) was 15.8 min. The Vd ([3]; im, 0.75 mg/kg) was 8.14 L, the C0 ([3]; iv, 0.075 mg/kg) was 1040 ng/mL and the Cmax ([3]; iv, 0.075 mg/kg) was 700 ng/mL. The MRT ([3]; iv, 0.075 mg/kg) was 7.07 min, the Vd ([3]; iv, 0.075 mg/kg) was 0.735 L and the half-life ([3]; iv, 0.075 mg/kg) was 7.6 min. The Cmax ([3]; male, im, 0.75 mg/kg) was 1000 ng/mL, the Tmax ([3]; male, im, 0.75 mg/kg) was 15 min and the level at 5 min ([3]; male, im, 0.75 mg/kg, plasma concentration at 5 min) was 940 ± 280 ng/mL. It also gave a level at 0.25 h ([3]; male, im, 0.75 mg/kg, plasma concentration at 15 min) of 1100 ± 200 ng/mL, an AUC(0-inf) ([3]; male, iv, 0.075 mg/kg) of 144 ng·h/mL and a level at 2 min ([3]; male, iv, 75 ug/kg, plasma concentration 2 min after administration) of 700 ng/mL. The level at 0.5 h ([3]; male, iv, 75 ug/kg, plasma concentration after 30 min) was 7.6 ± 1.3 ng/mL, the “plasma concentration after 2 h” value ([4]; both, Sprague-Dawley, iv, 0.25 mg/kg, 2 h) was 2.2 ± 0.4 ng/mL and the “Cmax extrapolated in proportion to dose” value [4] was ~ 34 μg/mL. The “volume of distribution after IM, fold higher than after IV” value [4] was “more than 4 fold”, the “AUMC0→∞” value ([4]; iv, 0.25 mg/kg) was 194.6 μg·min^2/mL and the k ([4]; iv, 0.25 mg/kg) was 0.045 min⁻¹. For the same molecule, the “plasma concentration lower in male rats than in female rats” value ([4]; iv, 0.25 mg/kg) was “around 25%” and the “volume of distribution as share of the theoretical circulating blood volume” value ([4]; iv, 0.25 mg/kg) was 85%.
